Reference: patent US6358885B1, “Substituted phenylheterocyclic herbicides” (Mississippi State University, priority 1992, dated 2002)

What was measured:
Experiment in all cases: Test B preemergence/postemergence greenhouse plant response rating 0 to 10
chickweed = format: in vivo, Stellaria media; settings: for Plant response rating, Chickweed: 0 to 10 scale
In short: (§1)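 Test chemicals were sprayed onto freshly planted seed and, concurrently, onto young plants between the one and four leaf stage. After a twelve- to sixteen-day greenhouse period, each species was visually compared with untreated controls.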

cocklebur = format: in vivo, Xanthium pensylvanicum; settings: for Plant response rating, Cocklebur: 0 to 10 scale
In short: as §1

morningglory = format: in vivo, Ipomoea hederacea; settings: for Plant response rating, Morningglory: 0 to 10 scale
In short: as §1

sorghum = format: in vivo, Sorghum bicolor; settings: for Plant response rating, Sorghum: 0 to 10 scale
In short: as §1

sugar beet = format: in vivo, Beta vulgaris; settings: for Plant response rating, Sugar beet: 0 to 10 scale
In short: as §1

giant foxtail = format: in vivo, Setaria faberii; settings: for Plant response rating, Giant foxtail: 0 to 10 scale
In short: as §1

cheatgrass = format: in vivo, Bromus secalinus; settings: for Plant response rating, Cheatgrass: 0 to 10 scale
In short: as §1

wild oat = format: in vivo, Avena fatua; settings: for Plant response rating, Wild oat: 0 to 10 scale
In short: as §1

velvetleaf = format: in vivo, Abutilon theophrasti; settings: for Plant response rating, Velvetleaf: 0 to 10 scale
In short: as §1

wheat = format: in vivo, Triticum aestivum; settings: for Plant response rating, Wheat: 0 to 10 scale
In short: as §1

wild buckwheat = format: in vivo, Polygonum convolvulus; settings: for Plant response rating, Wild buckwheat: 0 to 10 scale
In short: as §1

purple nutsedge = format: in vivo, Cyperus rotundus; settings: for Plant response rating, Nutsedge: 0 to 10 scale
In short: as §1

bedstraw = format: in vivo, Galium aparine; settings: for Plant response rating, Bedstraw: 0 to 10 scale
In short: as §1

lambsquarters = format: in vivo, Chenopodium album; settings: for Plant response rating, Lambsquarter: 0 to 10 scale
In short: as §1

barnyardgrass = format: in vivo, Echinochloa crus-galli; settings: for Plant response rating, Barnyardgrass: 0 to 10 scale
In short: as §1

rice = format: in vivo, Oryza sativa; settings: for Plant response rating, Rice: 0 to 10 scale
In short: as §1

cotton = format: in vivo, Gossypium hirsutum; settings: for Plant response rating, Cotton: 0 to 10 scale
In short: as §1

barley = format: in vivo, Hordeum vulgare; settings: for Plant response rating, Barley: 0 to 10 scale
In short: as §1

blackgrass = format: in vivo, Alopecurus myosuroides; settings: for Plant response rating, Blackgrass: 0 to 10 scale
In short: as §1

soybean = format: in vivo, Glycine max; settings: for Plant response rating, Soybean: 0 to 10 scale
In short: as §1

rape = format: in vivo, Brassica napus; settings: for Plant response rating, Rape: 0 to 10 scale
In short: as §1

crabgrass = format: in vivo, Digitaria spp.; settings: for Plant response rating, Crabgrass: 0 to 10 scale
In short: as §1

corn = format: in vivo, Zea mays; settings: for Plant response rating, Corn: 0 to 10 scale
In short: as §1

With `C=CCOc1cc(-c2nn3c(c2Cl)CCCC3)c(Cl)cc1Cl` [Compound 71] the “Plant response rating, Chickweed” value (chickweed; POSTEMERGENCE, Rate 50 g/ha) was 2, the “Plant response rating, Chickweed” value (chickweed; PREEMERGENCE, Rate 50 g/ha) was 0 and the “Plant response rating (0 to 10 scale), Chickweed” value (chickweed; PREEMERGENCE, Rate 200 g/ha) was 0. The “Plant response rating, Chickweed” value (chickweed; Rate 200 g/ha, POSTEMERGENCE) was 3, the “Plant response rating, Cocklebur” value (cocklebur; POSTEMERGENCE, Rate 50 g/ha) was 7 and the “Plant response rating, Cocklebur” value (cocklebur; PREEMERGENCE, Rate 50 g/ha) was 0. The “Plant response rating (0 to 10 scale), Cocklebur” value (cocklebur; PREEMERGENCE, Rate 200 g/ha) was 0, the “Plant response rating, Cocklebur” value (cocklebur; Rate 200 g/ha, POSTEMERGENCE) was 8 and the “Plant response rating, Morningglory” value (morningglory; POSTEMERGENCE, Rate 50 g/ha) was 10. For the same molecule, the “Plant response rating, Morningglory” value (morningglory; PREEMERGENCE, Rate 50 g/ha) was 0, the “Plant response rating (0 to 10 scale), Morningglory” value (morningglory; PREEMERGENCE, Rate 200 g/ha) was 0 and the “Plant response rating, Morningglory” value (morningglory; Rate 200 g/ha, POSTEMERGENCE) was 10. For the same molecule, the “Plant response rating, Sorghum” value (sorghum; POSTEMERGENCE, Rate 50 g/ha) was 6, the “Plant response rating, Sorghum” value (sorghum; PREEMERGENCE, Rate 50 g/ha) was 0 and the “Plant response rating (0 to 10 scale), Sorghum” value (sorghum; PREEMERGENCE, Rate 200 g/ha) was 0. The “Plant response rating, Sorghum” value (sorghum; Rate 200 g/ha, POSTEMERGENCE) was 6, the “Plant response rating, Sugar beet” value (sugar beet; POSTEMERGENCE, Rate 50 g/ha) was 10 and the “Plant response rating, Sugar beet” value (sugar beet; PREEMERGENCE, Rate 50 g/ha) was 5. The “Plant response rating (0 to 10 scale), Sugar beet” value (sugar beet; PREEMERGENCE, Rate 200 g/ha) was 10, the “Plant response rating, Sugar beet” value (sugar beet; Rate 200 g/ha, POSTEMERGENCE) was 10 and the “Plant response rating, Giant foxtail” value (giant foxtail; POSTEMERGENCE, Rate 50 g/ha) was 5. For the same molecule, the “Plant response rating, Giant foxtail” value (giant foxtail; PREEMERGENCE, Rate 50 g/ha) was 0, the “Plant response rating (0 to 10 scale), Giant foxtail” value (giant foxtail; PREEMERGENCE, Rate 200 g/ha) was 8 and the “Plant response rating, Giant foxtail” value (giant foxtail; Rate 200 g/ha, POSTEMERGENCE) was 6. For the same molecule, the “Plant response rating, Cheatgrass” value (cheatgrass; POSTEMERGENCE, Rate 50 g/ha) was 4, the “Plant response rating, Cheatgrass” value (cheatgrass; PREEMERGENCE, Rate 50 g/ha) was 0 and the “Plant response rating (0 to 10 scale), Cheatgrass” value (cheatgrass; PREEMERGENCE, Rate 200 g/ha) was 2. The “Plant response rating, Cheatgrass” value (cheatgrass; Rate 200 g/ha, POSTEMERGENCE) was 6, the “Plant response rating, Wild oat” value (wild oat; POSTEMERGENCE, Rate 50 g/ha) was 3 and the “Plant response rating, Wild oat” value (wild oat; PREEMERGENCE, Rate 50 g/ha) was 2. For the same molecule, the “Plant response rating (0 to 10 scale), Wild oat” value (wild oat; PREEMERGENCE, Rate 200 g/ha) was 2, the “Plant response rating, Wild oat” value (wild oat; Rate 200 g/ha, POSTEMERGENCE) was 5 and the “Plant response rating, Velvetleaf” value (velvetleaf; POSTEMERGENCE, Rate 50 g/ha) was 10. For the same molecule, the “Plant response rating, Velvetleaf” value (velvetleaf; PREEMERGENCE, Rate 50 g/ha) was 0, the “Plant response rating (0 to 10 scale), Velvetleaf” value (velvetleaf; PREEMERGENCE, Rate 200 g/ha) was 10 and the “Plant response rating, Velvetleaf” value (velvetleaf; Rate 200 g/ha, POSTEMERGENCE) was 10. For the same molecule, the “Plant response rating, Wheat” value (wheat; POSTEMERGENCE, Rate 50 g/ha) was 4, the “Plant response rating, Wheat” value (wheat; PREEMERGENCE, Rate 50 g/ha) was 0 and the “Plant response rating (0 to 10 scale), Wheat” value (wheat; PREEMERGENCE, Rate 200 g/ha) was 2. The “Plant response rating, Wheat” value (wheat; Rate 200 g/ha, POSTEMERGENCE) was 6, the “Plant response rating, Wild buckwheat” value (wild buckwheat; POSTEMERGENCE, Rate 50 g/ha) was 10 and the “Plant response rating, Wild buckwheat” value (wild buckwheat; PREEMERGENCE, Rate 50 g/ha) was 0. For the same molecule, the “Plant response rating (0 to 10 scale), Wild buckwheat” value (wild buckwheat; PREEMERGENCE, Rate 200 g/ha) was 10, the “Plant response rating, Wild buckwheat” value (wild buckwheat; Rate 200 g/ha, POSTEMERGENCE) was 10 and the “Plant response rating, Nutsedge” value (purple nutsedge; POSTEMERGENCE, Rate 50 g/ha) was 2. For the same molecule, the “Plant response rating, Nutsedge” value (purple nutsedge; PREEMERGENCE, Rate 50 g/ha) was 0, the “Plant response rating (0 to 10 scale), Nutsedge” value (purple nutsedge; PREEMERGENCE, Rate 200 g/ha) was 5 and the “Plant response rating, Nutsedge” value (purple nutsedge; Rate 200 g/ha, POSTEMERGENCE) was 2. The “Plant response rating, Bedstraw” value (bedstraw; POSTEMERGENCE, Rate 50 g/ha) was 8, the “Plant response rating, Bedstraw” value (bedstraw; PREEMERGENCE, Rate 50 g/ha) was 2 and the “Plant response rating (0 to 10 scale), Bedstraw” value (bedstraw; PREEMERGENCE, Rate 200 g/ha) was 6. The “Plant response rating, Bedstraw” value (bedstraw; Rate 200 g/ha, POSTEMERGENCE) was 9, the “Plant response rating, Lambsquarter” value (lambsquarters; POSTEMERGENCE, Rate 50 g/ha) was 10 and the “Plant response rating, Lambsquarter” value (lambsquarters; PREEMERGENCE, Rate 50 g/ha) was 10. The “Plant response rating (0 to 10 scale), Lambsquarter” value (lambsquarters; PREEMERGENCE, Rate 200 g/ha) was 10, the “Plant response rating, Lambsquarter” value (lambsquarters; Rate 200 g/ha, POSTEMERGENCE) was 10 and the “Plant response rating, Barnyardgrass” value (barnyardgrass; POSTEMERGENCE, Rate 50 g/ha) was 6. For the same molecule, the “Plant response rating, Barnyardgrass” value (barnyardgrass; PREEMERGENCE, Rate 50 g/ha) was 0, the “Plant response rating (0 to 10 scale), Barnyardgrass” value (barnyardgrass; PREEMERGENCE, Rate 200 g/ha) was 5 and the “Plant response rating, Barnyardgrass” value (barnyardgrass; Rate 200 g/ha, POSTEMERGENCE) was 8. For the same molecule, the “Plant response rating, Rice” value (rice; POSTEMERGENCE, Rate 50 g/ha) was 4, the “Plant response rating, Rice” value (rice; PREEMERGENCE, Rate 50 g/ha) was 0 and the “Plant response rating (0 to 10 scale), Rice” value (rice; PREEMERGENCE, Rate 200 g/ha) was 0. For the same molecule, the “Plant response rating, Rice” value (rice; Rate 200 g/ha, POSTEMERGENCE) was 5, the “Plant response rating, Cotton” value (cotton; POSTEMERGENCE, Rate 50 g/ha) was 10 and the “Plant response rating, Cotton” value (cotton; PREEMERGENCE, Rate 50 g/ha) was 0. The “Plant response rating (0 to 10 scale), Cotton” value (cotton; PREEMERGENCE, Rate 200 g/ha) was 0, the “Plant response rating, Cotton” value (cotton; Rate 200 g/ha, POSTEMERGENCE) was 10 and the “Plant response rating, Barley” value (barley; POSTEMERGENCE, Rate 50 g/ha) was 3. The “Plant response rating, Barley” value (barley; PREEMERGENCE, Rate 50 g/ha) was 0, the “Plant response rating (0 to 10 scale), Barley” value (barley; PREEMERGENCE, Rate 200 g/ha) was 0 and the “Plant response rating, Barley” value (barley; Rate 200 g/ha, POSTEMERGENCE) was 4. The “Plant response rating, Blackgrass” value (blackgrass; POSTEMERGENCE, Rate 50 g/ha) was 4, the “Plant response rating, Blackgrass” value (blackgrass; PREEMERGENCE, Rate 50 g/ha) was 0 and the “Plant response rating (0 to 10 scale), Blackgrass” value (blackgrass; PREEMERGENCE, Rate 200 g/ha) was 0. For the same molecule, the “Plant response rating, Blackgrass” value (blackgrass; Rate 200 g/ha, POSTEMERGENCE) was 6, the “Plant response rating, Soybean” value (soybean; POSTEMERGENCE, Rate 50 g/ha) was 6 and the “Plant response rating, Soybean” value (soybean; PREEMERGENCE, Rate 50 g/ha) was 0. The “Plant response rating (0 to 10 scale), Soybean” value (soybean; PREEMERGENCE, Rate 200 g/ha) was 0, the “Plant response rating, Soybean” value (soybean; Rate 200 g/ha, POSTEMERGENCE) was 7 and the “Plant response rating, Rape” value (rape; POSTEMERGENCE, Rate 50 g/ha) was 8. For the same molecule, the “Plant response rating, Rape” value (rape; PREEMERGENCE, Rate 50 g/ha) was 0, the “Plant response rating (0 to 10 scale), Rape” value (rape; PREEMERGENCE, Rate 200 g/ha) was 3 and the “Plant response rating, Rape” value (rape; Rate 200 g/ha, POSTEMERGENCE) was 10. The “Plant response rating, Crabgrass” value (crabgrass; POSTEMERGENCE, Rate 50 g/ha) was 3, the “Plant response rating, Crabgrass” value (crabgrass; PREEMERGENCE, Rate 50 g/ha) was 0 and the “Plant response rating (0 to 10 scale), Crabgrass” value (crabgrass; PREEMERGENCE, Rate 200 g/ha) was 5. For the same molecule, the “Plant response rating, Crabgrass” value (crabgrass; Rate 200 g/ha, POSTEMERGENCE) was 3, the “Plant response rating, Corn” value (corn; POSTEMERGENCE, Rate 50 g/ha) was 3 and the “Plant response rating, Corn” value (corn; PREEMERGENCE, Rate 50 g/ha) was 0. The “Plant response rating (0 to 10 scale), Corn” value (corn; PREEMERGENCE, Rate 200 g/ha) was 2 and the “Plant response rating, Corn” value (corn; Rate 200 g/ha, POSTEMERGENCE) was 3.
